In US9144251B2, “High-potency sweetener composition with mineral and compositions sweetened therewith” (The Coca-Cola Company, priority 2005, dated 2015):

Test: Sensory evaluation of sweetness linger and sugar-like taste by a panel of experts (Example Sets G and H)
Assay type: in vivo
Set-up: key: 0=no sweetness linger; 1 very slight sweetness linger; 2=slight sweetness linger; 3 moderate sweetness linger; 4=moderately high sweetness linger; 5=high sweetness linger
Settings: scale 0-5; for Sweetness Linger rating (defined anchors of the scale): sucrose, 500 ppm of REBA control sample
Experimental: Sensory evaluation of the samples prepared in Example Set G was carried out under the following protocol, similar to that described hereinabove. In this test protocol, none of the samples were swallowed. All samples were expectorated and the mouth was rinsed with water after the tasting. Immediately upon sensing maximal sweetness, the sample was expectorated, the mouth was rinsed with water and the rate of sweetness decay (“Sweetness Linger”) was measured, where attention was focused on the sweetness 3-4 min after the water rinse. After sample tasting was complete, a salty oyster cracker was chewed followed by a water rinse, and at least 5 minutes followed before tasting the next sample. The sweetness linger was rated by a panel of experts in the sensory evaluation of foods and beverages using the following scale: 0=no sweetness linger, 1 very slight sweetness linger, 2=slight sweetness linger, 3 moderate sweetness linger, 4=moderately high sweetness linger, 5=high sweetness linger.
The “Sweetness Linger” rating for sucrose observed by this protocol is defined as 0. The Sweetness Linger of a 500 ppm of REBA control sample is defined as 5. Experimental samples were tasted by the same protocol, always allowing sufficient time between samples to ensure re-equilibration of the sensory system. Re-tasting of control samples during the course of the experiment was allowed and encouraged.
The comparison taste test was performed between two controls and addition of sweet taste improving additive on the onset and/or sweetness linger.
Sweet taste improving compositions were combined with a REBA solution to determine their effect on sweetness linger. Screening of the initial sample, or further dilutions, allowed identification of concentrations which were just above-threshold, herein defined as “near-threshold concentrations.” The near-threshold additive concentrations, a 6- to 100-fold higher higher additive concentration (depending on the off-taste intensity), and a mid-level additive concentration (halfway between the near-threshold and higher additive concentration) were evaluated to determine the effect on sweetness linger of a REBA solution.
Formulations of a 500 ppm REBA in a phosphoric acid solution (75%) at a pH of 2.5 with phosphoric acid or a pH of 3.1 with citric acid and potassium citrate were prepared prior to the addition of the additives at the three levels of concentration.
Sensory evaluation using the protocol described in Example Set G then was used to evaluate the sweetness linger of the REBA solutions.

Row | Compound | sweetness linger rating, control sample (8 g of sugar in 100 ml of citrate buffer) | sweetness linger rating, control sample (10 g of sugar in 100 ml carbon treated water, phosphoric acid (75%) to pH 2.4-2.5) | Sweetness Linger rating (defined anchors of the scale) | sweetness linger rating, control sample (400 ppm REBA in citric acid/potassium citrate composition equivalent to diet lemon-lime beverage, no additive) | sweetness linger rating, control sample (500 ppm in carbon-treated water, phosphoric acid (75%) to pH 2.4-2.5, no additive)
1 | OC[C@H]1O[C@@](CO)(O[C@H]2O[C@H](CO)[C@@H](O)[C@H](O)[C@H]2O)[C@@H](O)[C@@H]1O [sugar, sucrose] | 0 | 0 | 0 |  | 
2 | rebaudioside A |  |  | 5 | 5 | 5
